Laboratory results as given in patent US9181182B2, “S1P receptors modulators” (Akaal Pharma PTY LTD, priority 2008, dated 2015).

Columns and labels:
female BALB/c mice = test: Lymphopenia assay; format: in vivo
Protocol: The study was performed to determine the ability of the compounds of the invention to induce lymphopenia in female BALB/c mice. On day 0, 27 female BALB/c mice were randomised based on body weight into nine groups of three mice each. Animals received a single i.p. administration of Test compounds and blood was collected by cardiac puncture either 6 or 24 h after administration. […] Changes to other haematological parameters were not observed.

S1P3 human receptor = S1P3 human receptor (Homo sapiens (Human), UniProt Q99500); test: S1P3 calcium mobilization in CHO K1 cells; format: cell-based; details: NA = Not Active
S1P3 human receptor, sequence (Q99500 whole entry): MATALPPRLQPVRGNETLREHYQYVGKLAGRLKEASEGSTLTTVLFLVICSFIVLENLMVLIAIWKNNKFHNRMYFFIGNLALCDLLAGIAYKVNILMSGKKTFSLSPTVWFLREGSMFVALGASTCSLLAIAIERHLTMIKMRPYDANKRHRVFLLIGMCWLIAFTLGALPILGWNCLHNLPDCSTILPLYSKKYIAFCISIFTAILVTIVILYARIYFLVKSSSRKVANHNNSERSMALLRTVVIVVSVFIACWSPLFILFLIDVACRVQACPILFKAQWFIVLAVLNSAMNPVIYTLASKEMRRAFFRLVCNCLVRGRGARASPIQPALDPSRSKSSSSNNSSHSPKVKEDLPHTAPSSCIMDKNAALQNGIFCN
Protocol: (§1) Independently, selected compounds were evaluated for S1P1 and S1P3 agonistic activity. The S1P1 assay system was GTPgama-S35 binding in membranes from CHO K1 cells, expressing S1P1 human receptor. The S1P3 assay system was calcium mobilization in CHO K1 cells expressing S1P3 human receptor. […] Compounds were tested initially at a concentration of 10 μM.

S1P1 human receptor = S1P1 human receptor (Homo sapiens (Human), UniProt P21453); test: S1P1 [35S]-GTPgamaS binding assay (agonist activity); format: biochemical; details: for EC50: GTPgamaS binding, agonist; for Efficacy (% of maximum): S1P1, relative to reference agonist S1P; for EC50S1P1/EC50S1P: potency at S1P1 relative to S1P
S1P1 human receptor, sequence (P21453 whole entry): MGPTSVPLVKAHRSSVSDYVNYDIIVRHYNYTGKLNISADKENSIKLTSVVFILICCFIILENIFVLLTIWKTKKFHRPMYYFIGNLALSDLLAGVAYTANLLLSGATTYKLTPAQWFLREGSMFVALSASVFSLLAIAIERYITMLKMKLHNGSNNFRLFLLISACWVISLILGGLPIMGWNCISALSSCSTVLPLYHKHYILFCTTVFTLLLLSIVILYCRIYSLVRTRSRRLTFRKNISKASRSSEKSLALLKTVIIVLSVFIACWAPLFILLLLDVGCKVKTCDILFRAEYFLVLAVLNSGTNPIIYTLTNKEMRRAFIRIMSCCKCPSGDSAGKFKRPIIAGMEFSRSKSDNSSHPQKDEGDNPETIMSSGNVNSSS
Protocol: Selected Compounds of the Examples were evaluated at Millipore Corporation, USA, using S1P1 receptor; [^35S]-GTPgamaS binding assay. A [^35S]-GTPgamaS binding assay at Millipore was conducted by GPCR Profiler™ Custom Service Laboratory, Temecula, Calif., Millipore, Inc. to monitor dose-dependent agonist selectivity for selected Examples against the S1P1 receptors. The assay was completed with sample compounds subjected to an eight-point, four-fold dose response curve with starting concentration of 10 μM. Selectivity was determined upon initial addition of compounds followed by a 30 minute incubation at 30° C. Following compound incubation, bounded [^35S]-GTPgamaS was determined by filtration and scintillation counting.
as §1

[1] = tested on: Human promyelocytic leukemia (HL-60) cells; test: Cell viability (growth inhibition) assay, MTS; format: cell-based; details: Homo sapiens, 50% reduction in cell viability of HL-60 cells, 48 hr incubation
Protocol: In order to measure the apoptotic effect of compounds on the metabolic activity of viable cells, the following assay was performed on Human promyelocytic leukemia cells. The assay utilises the tetrazolium compound (3-(4,5-dimethylthiazol-2-yl)-5-(3-carboxymethoxyphenyl)-2-(4-sulfophenyl)-2H-tetrazolium, inner salt; (MTS) and an electron coupling reagent (phenazine methosulfate; (PMS). MTS is bioreduced by cells into a formazan product the optical absorbance of which is measured directly from 96 well assay plates. The conversion of MTS into aqueous, soluble formazan is accomplished by dehydrogenase enzymes found in metabolically active cells. The quantity of formazan product as measured by the amount of 490 nm absorbance is directly proportional to the number of living cells in culture.
The assay was based on the National Cancer Institute (NCI) protocol, briefly, cells were grown in RPMI 1640 media supplemented with 10% FCS (foetal calf serum) and kept at 37° C. in a humidified environment with 5% CO2.
For the growth inhibition assay, Human promyelocytic leukemia (HL-60) cells were seeded at a density of 10,000 cells per well in 96 well plates in a volume of 100 μl and allowed to grow for 24 h. Compounds were serially diluted in DMSO at concentrations 100 fold higher than used in the assay (100×). Compounds were freshly prepared for each experiment. The 100× stocks were then diluted to 2× stocks into media and immediately, 100 μl of this 2× stock was added to the cells to create the desired final concentration of drug with a DMSO concentration of 1%. One row of each 96 well plate was treated with DMSO alone as a control. Cells were then incubated for a further 48 hr. Metabolic activity was determined using MTS (Promega) (90% 1.6 mg/ml MTS, 10% 1.6 mg/ml PMS (phenazine methosulfate) made fresh in PBS). 50 μl of this mix was added to all wells of the plates and allowed to incubate for 1.5-2 hr. Plates were shaken gently for about 15 min and absorbance was read on a plate reader at 490 nm. Averages were taken of the readings at each point with standard deviation and plotted using MicroCal Origin.

[2] = 3 mg/kg and 30 mg/kg single i.p., 6 and 24 h, compared to untreated animals

SMILES | lymphocyte counts (female BALB/c mice; [2]) | total white blood cell counts (female BALB/c mice; [2]) | Changes to other haematological parameters (female BALB/c mice; single i.p., 6 or 24 h) | EC50 (S1P3 human receptor) | EC50 (S1P1 human receptor) | Efficacy (% of maximum) (S1P1 human receptor) | EC50S1P1/EC50S1P (S1P1 human receptor) | IC50 [1]
CCOc1ccc(-c2nc(-c3cccc4c3CCN4CC(N)(CO)CO)no2)cc1OCC [Example 34, 2-Amino-2-((4-(5-(3,4-diethoxyphenyl)-1,2,4-oxadiazol-3-yl)indolin-1-yl)methyl)propane-1,3-diol] | decrease | decrease | not observed | 1290 nM | 6.8 nM | 92% | 0.4 | 1820 ± 500 nM
CCOc1ccc(-c2nc(-c3ccc4c(c3)CCN4CC(N)(CO)CO)no2)cc1OCC [Example 40, 2-Amino-2-((5-(5-(3,4-diethoxyphenyl)-1,2,4-oxadiazol-3-yl)indolin-1-yl)methyl)propane-1,3-diol] |  |  |  | > 15600 nM | 344 nM | 117% | 36.41 | 3100 nM
